The species entered for one assay is Rattus norvegicus. The assay can be described thus: Selectivity ratio of Ki for rat brain membrane sigma 1receptor to Ki for rat brain membrane sigma 2 receptor.
The nature of assay [1]: Displacement of [3H]di-O-tolylguanidine from rat brain membrane sigma 2 receptor after 120 mins in the presence of (+)-pentazocin. On the technique in general: Loss of bound radioactivity is the signal in a displacement assay; it reports binding, not function.
Assay [2] concerns the target Sigma non-opioid intracellular receptor 1 (Rattus norvegicus, UniProt Q9R0C9). Nature of the assay: Displacement of [3H](+)-pentazocine from rat brain membrane sigma 1receptor after 120 mins.

Broadly, the Ki is a measure of affinity in units of concentration, obtained from inhibition or displacement.

Sequence of Sigma non-opioid intracellular receptor 1 (Q9R0C9 whole entry): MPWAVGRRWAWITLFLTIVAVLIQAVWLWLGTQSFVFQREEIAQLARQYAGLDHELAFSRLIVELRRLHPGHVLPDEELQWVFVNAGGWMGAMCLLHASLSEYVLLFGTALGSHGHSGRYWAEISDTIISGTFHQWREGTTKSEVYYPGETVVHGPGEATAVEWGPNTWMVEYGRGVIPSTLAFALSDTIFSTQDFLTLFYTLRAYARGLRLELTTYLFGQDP

`c1ccc(CCCN2CCN(c3ccccn3)CC2)cc1`: the Ratio Ki in the assay listed under Rattus norvegicus came to 16.9. Further, in assay [1], the Ki is 4.91 nM.

Regarding `c1ccc(CCN2CCN(c3ccccn3)CC2)cc1`, the Ratio Ki in the assay filed under Rattus norvegicus came to 2.7. Besides, the Ki in assay [1] came to 119 nM.

With `c1ccc(CCN2CCN(c3ccncc3)CC2)cc1`, the Ratio Ki in the assay listed under Rattus norvegicus is 0.6. The figures for the Ki in assay [2] and in assay [1] were 41.8 nM and 69.7 nM, respectively.

Regarding `c1ccc(CCCN2CCN(c3ccncc3)CC2)cc1`, in the assay filed under Rattus norvegicus, the Ratio Ki was determined as 0.41. For the same molecule, the Ki in assay [2] was found to be 34.2 nM; in assay [1], 84 nM.

As to `c1ccc(CCN2CCN(c3cccnc3)CC2)cc1`, in the assay listed under Rattus norvegicus, the Ratio Ki stood at 0.22. Also, the values for the Ki in assay [2] and in assay [1] were 97.2 nM and 440 nM, respectively.

Turning to `c1ccc(CCCN2CCN(c3cccnc3)CC2)cc1`, the Ratio Ki in the assay listed under Rattus norvegicus turned out to be 0.19. Moreover, the values for the Ki in assay [2] and in assay [1] were 21.2 nM and 110 nM, respectively.
